Results reported in ChEMBL document CHEMBL1201862, “PubChem BioAssay data set” (2004).
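Results reflect a 48-hour exposure of cells in 96-well plates to compound at five concentrations. At the GI50, growth is halved.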 The source made the active and inactive calls. Cut-off read from the data, not from the text of the source: active = GI50 up to about 1.1 µM and inactive = higher.

Columns and labels:
Test in all cases: NCI-60 cell line screen, 48 h
NCI-H522 = test system: NCI-H522
DU-145 = test system: DU-145
OVCAR-4 = test system: OVCAR-4
SF-268 = test system: SF-268
SNB-75 = test system: SNB-75
M14 = test system: M14
A498 = test system: A498
OVCAR-5 = test system: OVCAR-5
HOP-62 = test system: HOP-62
Malme-3M = test system: Malme-3M
TK-10 = test system: TK-10
MOLT-4 = test system: MOLT-4
HT-29 = test system: HT-29
SR = test system: SR
MDA-MB-435 = test system: MDA-MB-435
MDA-MB-231 = test system: MDA-MB-231
SK-MEL-28 = test system: SK-MEL-28
IGROV-1 = test system: IGROV-1
786-0 = test system: 786-0
UACC-257 = test system: UACC-257
ACHN = test system: ACHN
NCI-H460 = test system: NCI-H460
SN12C = test system: SN12C
SK-OV-3 = test system: SK-OV-3
HCC 2998 = test system: HCC 2998
SF-295 = test system: SF-295
K562 = test system: K562
HL-60 = test system: HL-60
UACC-62 = test system: UACC-62
LOX IMVI = test system: LOX IMVI
BT-549 = test system: BT-549
RXF 393 = test system: RXF 393
SK-MEL-2 = test system: SK-MEL-2
PC-3 = test system: PC-3
EKVX = test system: EKVX
NCI-H23 = test system: NCI-H23
A549 = test system: A549
COLO 205 = test system: COLO 205
KM12 = test system: KM12
U-251 = test system: U-251
MDA-N = test system: MDA-N
Hs-578T = test system: Hs-578T
HCT-116 = test system: HCT-116
T47D = test system: T47D
UO-31 = test system: UO-31
NCI-H226 = test system: NCI-H226
CCRF-CEM = test system: CCRF-CEM
CAKI-1 = test system: CAKI-1
SNB-19 = test system: SNB-19
HOP-92 = test system: HOP-92
HCT-15 = test system: HCT-15
SW-620 = test system: SW-620
SF-539 = test system: SF-539
RPMI-8226 = test system: RPMI-8226
OVCAR-3 = test system: OVCAR-3
OVCAR-8 = test system: OVCAR-8
NCI/ADR-RES = test system: NCI/ADR-RES
MCF7 = test system: MCF7
SK-MEL-5 = test system: SK-MEL-5

Measured: GI50

COC1/C=C/C(C)C(C(C)C(OC)C(C)CCC(=O)C(C)C(C/C=C/N(C)C=O)OC)OC(=O)/C=C/C=C(\C)CC(OC)C(OC)C2=CC(=O)O[C@@H](C(C)C(OC)CC(OC)/C=C/C(C)C(O)C1)[C@H]2O (some centres undefined)
47.9 nM: HCT-15
active: NCI-H522 119 nM | DU-145 373 nM | OVCAR-4 121 nM | SF-268 129 nM | SNB-75 26.8 nM | M14 140 nM | A498 72.3 nM | OVCAR-5 163 nM | HOP-62 70.5 nM | Malme-3M 148 nM | TK-10 74.5 nM | MOLT-4 105 nM | HT-29 61.5 nM | SR 80.9 nM | MDA-MB-435 249 nM | MDA-MB-231 77.3 nM | SK-MEL-28 192 nM | IGROV-1 119 nM | 786-0 147 nM | UACC-257 130 nM | ACHN 91.4 nM | NCI-H460 75.9 nM | SN12C 126 nM | SK-OV-3 122 nM | HCC 2998 71.6 nM | SF-295 115 nM | K562 37.9 nM | HL-60 96.4 nM | UACC-62 137 nM | LOX IMVI 14.5 nM | BT-549 117 nM | RXF 393 121 nM | SK-MEL-2 27.6 nM | PC-3 85.5 nM | EKVX 154 nM | NCI-H23 145 nM | A549 150 nM | COLO 205 72.1 nM | KM12 164 nM | U-251 111 nM | MDA-N 208 nM | Hs-578T 33.6 nM | HCT-116 < 22.2 nM | T47D 208 nM | UO-31 137 nM | NCI-H226 60 nM | CCRF-CEM 39 nM | CAKI-1 50.8 nM | SNB-19 171 nM | HOP-92 28.4 nM | SW-620 120 nM | SF-539 128 nM | RPMI-8226 35.6 nM | OVCAR-3 68.1 nM | OVCAR-8 220 nM | NCI/ADR-RES 226 nM | MCF7 208 nM | SK-MEL-5 90.4 nM
